Values joined by “and” are separate entries in the source; they are usually repeats but may differ in a detail not shown here. Identical values can stand only once. “Also recorded” adds a separate entry of the source.
Key:
lipase = target: T1, lipase (Homo sapiens, UniProt P04118+P16233); assay: Inhibition of lipase activity in vitro assay, tributyrin or Intralipid as substrates (FIGS. 1A and 1B); assay type: biochemical; details: for Inhibition of lipase activity in vitro: tributyrin or intralipid as substrates
T1 sequence (P16233 17-465): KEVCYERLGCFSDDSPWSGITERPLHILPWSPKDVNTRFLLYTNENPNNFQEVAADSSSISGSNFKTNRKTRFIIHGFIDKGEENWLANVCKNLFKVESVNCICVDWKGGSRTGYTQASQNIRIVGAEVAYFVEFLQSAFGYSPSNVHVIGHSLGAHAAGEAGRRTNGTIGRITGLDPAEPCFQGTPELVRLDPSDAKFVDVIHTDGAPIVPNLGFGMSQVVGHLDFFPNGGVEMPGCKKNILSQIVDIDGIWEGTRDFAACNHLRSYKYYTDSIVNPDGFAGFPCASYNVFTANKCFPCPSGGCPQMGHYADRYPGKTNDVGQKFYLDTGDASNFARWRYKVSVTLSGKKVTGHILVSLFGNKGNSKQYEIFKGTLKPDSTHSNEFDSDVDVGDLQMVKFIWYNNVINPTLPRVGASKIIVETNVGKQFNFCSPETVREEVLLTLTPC
T1 sequence (P04118 23-112): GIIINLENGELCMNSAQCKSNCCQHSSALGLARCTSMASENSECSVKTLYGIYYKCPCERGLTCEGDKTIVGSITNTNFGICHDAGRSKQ

[1] = In vivo Intralipid feeding test: free fatty acids and triglycerides in blood serum; set-up: species or system Sprague-Dawley rats
Protocol: Sprague-Dawley rats weighing 200-220 g, stored in cages using a 12 hours of light/12 hours of darkness cycle were used. They had free admittance to food and water prior to the test. The day prior a test the rats were fasted, and were anaesthetised in the morning using diethyl ether. 1 ml of Intralipid (200 mg/ml) with and without inhibitor was fed to the rats by means of a syringe through the mouth and ending in the stomach. Blood samples were taken at time 0, prior to the test start, and then after 30, 60, 120 and 180 minutes after feeding with Intralipid. After centrifugation, serum was separated and stored at −20° C. for analysis. Analyses of free fatty acids, triglycerides and total cholesterol were made. The test has been repeated, also using different dosages of the inhibitors tested.

[2] = Evaluation of food intake and body weight, oral gavage for 5 days; assay type: in vivo, female Sprague-Dawley rats
Protocol: (§1) Female female Sprague-Dawley rats were used for all experiments. Rats were housed in a temperature-controlled room (22±1° C.) under a 12-h light (6:00-18:00)/12-h cycle, given free access to water, and fed an libitum on a standard chow unless otherwise stated for a high-fat diet experiment. All procedures using animals were approved by the local ethics committee and followed the guidelines for experiments in animals (European Economic Community Council Directive 86/609/EEC).
For measurement of food consumption rats were individually housed in cage and given a high-fat diet for a week before the beginning of the experiment. […] Rat with as libitum access to high-fat food were orally given dimethylaminoethyl dodecyl ether (37.5 or 50 μl dissolved in 1% methycellulose) through a gastric gavage or 1% methyl cellulose at the onset of the dark cycle (18:00) and food intake was measured at 15 h following dimethylaminoethyl dodecyl ether administration from pre-weighed portions of food dispensed from were cage top. Cages were carefully monitored for evidence of food spillage or grinding.

[3] = Blood lipids analysis after 5 days of oral administration; assay type: in vivo, female Sprague-Dawley rats; details: 50 μl orally for 5 days
Protocol: as §1
Blood was drawn in rats from the intra-orbital bullar plexus under anaesthesia and collected in ice-cold tubes. Serum was obtained by centrifugation at 3000 g for 15 min at 4° C. […] Plasma triglycerides was determined with an Sigma diagnostics kit. Plasma fatty acids were measured by NEFAC kit (Wako chemicals GmbH, Neuss, Germany). Plasma PYY (3-36) and leptin were measured with the PYY Enzyme Immunossay kit and leptin Enzyme Immunossay (Phoenix Pharmaceuticals, USA)

[4] = Serum PYY 3-36, leptin and ghrelin after 5 days of oral administration; assay type: in vivo, female Sprague-Dawley rats
Protocol: Blood was drawn in rats from the intra-orbital bullar plexus under anaesthesia and collected in ice-cold tubes. Serum was obtained by centrifugation at 3000 g for 15 min at 4° C. For acute effect of dimethylaminoethyl dodecyl ether on blood lipids, overnight-fasted rats were given 200 μl dimethylaminoethyl dodecyl ether plus 1 ml (200 mg) Intralipids orally through a gastric gavage and blood collected at 0, 30, 60, 120 and 180 min. Plasma triglycerides was determined with an Sigma diagnostics kit. Plasma fatty acids were measured by NEFAC kit (Wako chemicals GmbH, Neuss, Germany). Plasma PYY (3-36) and leptin were measured with the PYY Enzyme Immunossay kit and leptin Enzyme Immunossay (Phoenix Pharmaceuticals, USA)
Stat View program was used for statistics analysis. The data were analyzed using two-way ANOVA followed by post hoc tests for comparison of individual differences. Student's t-test was used for the analysis of triglycerides, PYY3-36, leptin and ghrelin data.

Pancreatic lipase = Pancreatic lipase activity and protein expression in pancreas after 5 days of treatment; assay type: in vivo, rat; details: pancreas of rats given 50 μl for 5 days by gastric gavage
Protocol: At the end of experiment, rats were killed and the pancreas collected for assay of lipase activity and protein expression. Lipase activity was determined with pH stat titration (Mettle Components DK 10, DK 11, DV11) using tributyrin dispersed in bile salt as substrate (Borgström & Erlanson). Lipase expression was analysed by western blot.
Pancreas was homogenized in 0.5% digitonin buffer containing 10 mM sodium phosphate (pH6.0) and 1 mini complete tablet on ice. After centrifuge at 14000 g, 4° C. for 10 min, the supernatant was collected and heating at 65° C., 15 min for inactivate endogenous lipase. The protein amount was measured by BCA method. Equal amount (50 μg) protein was load on 10% SDS-polyacrylamide gels, transferred to the nitrocellulose membranes and then incubated with anti-lipase antibody in the dilution 1:1000 at 4° C. overnight. Pancreatic lipase protein was detected using a horseradish peroxidase-conjugated donkey anti-rabbit antibody (1:8000) for 60 min at room temperature followed with an enhanced chemiluminescence (Pierce).

In the case of `CCCCCCCCCCCCOCCN(C)C` [dimethylaminoethyl dodecyl ether], the “Dose at which the maximum inhibition of lipase activity was seen” value (lipase; Intralipid as substrate) is reported as 80 µmol, the “Dose at which the maximum inhibition of lipase activity was seen” value (lipase; tributyrin as substrate) is reported as 40 µmol and the “Inhibition of lipase activity in vitro” value (lipase) is reported as “completely inhibited lipase activity”. For the same compound, the “Inhibition of lipase activity in vitro” value (lipase; listed as Dimethylaminoethyl dodecyl ether) was “inhibited lipase activity in a dose-depended manner”, the Triglycerides ([1]; rat blood serum, 0 min (prior to Intralipid feeding)) was 103 mg/dL and the Free fatty acids ([1]; rat blood serum, 0 min (prior to Intralipid feeding), listed as Compound C12) was 0.56 mmol and 0.57 mmol. For the same compound, the Triglycerides ([1]; rat blood serum, 30 min after 1 ml Intralipid with inhibitor) was 95 mg/dL, the Free fatty acids ([1]; rat blood serum, 30 min after 1 ml Intralipid with inhibitor, listed as Compound C12) was 0.63 mmol and 0.67 mmol and the Triglycerides ([1]; rat blood serum, 60 min after 1 ml Intralipid with inhibitor) was 98 mg/dL. The Free fatty acids ([1]; rat blood serum, 60 min after 1 ml Intralipid with inhibitor, listed as Compound C12) was 0.70 mmol and 0.72 mmol, the Triglycerides ([1]; rat blood serum, 120 min after 1 ml Intralipid with inhibitor) was 95 mg/dL and the Free fatty acids ([1]; rat blood serum, 120 min after 1 ml Intralipid with inhibitor, listed as Compound C12) was 0.60 mmol and 0.72 mmol. The Triglycerides ([1]; rat blood serum, 180 min after 1 ml Intralipid with inhibitor) was 77 mg/dL, the Free fatty acids ([1]; rat blood serum, 180 min after 1 ml Intralipid with inhibitor, listed as Compound C12) was 0.62 mmol and 0.74 mmol and the “Free fatty acids (% of control)” value ([1]; rat, dose of active compound 10 μg) was 83.7 % of control. For the same compound, the Free fatty acids ([1]; rat, dose of active compound 10 μg, dose 0: 1.45) was 1.25 mM, the “Free fatty acids (% of control)” value ([1]; rat, dose of active compound 50 μg) was 56.1 % of control and the Free fatty acids ([1]; rat, dose of active compound 50 μg, dose 0: 1.45) was 0.83 mM. For the same compound, the “Free fatty acids (% of control)” value ([1]; rat, dose of active compound 100 μg) was 57.4 % of control, the Free fatty acids ([1]; rat, dose of active compound 100 μg, dose 0: 1.45) was 0.85 mM and the “Free fatty acids (% of control)” value ([1]; rat, dose of active compound 200 μg) was 74.3 % of control. For the same compound, the Free fatty acids ([1]; rat, dose of active compound 200 μg, dose 0: 1.45) was 1.1 mM, the “Food intake vs vehicle” value ([2]; rats fed high-fat diet, 25 μl orally) was “no food intake inhibition” and the “Food intake vs vehicle” value ([2]; rats fed high-fat diet, 37.5 μl by gastric gavage) was “a trend towards reduced food intake was observed, however this did not reach statistic significance”. For the same compound, the “Food intake vs vehicle” value ([2]; rats fed high-fat diet, 50 μl by gastric gavage, up to 5 days) was “highly significant reduction in food intake; also recorded: significantly inhibited”, the “Body weight vs non-treated group” value ([2]; rats fed high-fat diet, 50 μl daily for 5 days) was “decreased body weight; also recorded: significantly loss of body weight” and the “Food intake vs controls” value ([2]; rats fed low-fat diet, 37.5 and 50 μl, 5 testing days) was “failed to decrease food intake”. For the same compound, the “Serum (plasma) cholesterol level vs vehicle” value [3] was “no effect; also recorded: no difference”, the “Serum fatty acids level vs vehicle” value [3] was “decreased serum triglyceride and fatty acids, but this was not statistic significance; also recorded: decreased” and the “Serum triglyceride level vs vehicle” value [3] was “decreased serum triglyceride and fatty acids, but this was not statistic significance; also recorded: decreased”. The “Serum PYY 3-36 level vs controls” value ([4]; fasted rats, 50 μl for 5 days) was “no difference”, the “Serum ghrelin level vs controls” value ([4]; fasted rats, 50 μl for 5 days) was “markedly increased” and the “Serum leptin level vs controls” value ([4]; fasted rats, 50 μl for 5 days) was “markedly decreased; also recorded: significantly decreased”. For the same compound, the “Serum PYY3-36 level” value ([4]; treated rats, 5 days, control rats 0.86±0.24) was 0.85 ± 0.26 ng/mL, the “Pancreatic lipase activity vs controls” value (Pancreatic lipase) was “not changed” and the “Pancreatic lipase protein expression vs controls (western blot)” value (Pancreatic lipase) was “slightly reduced; also recorded: reduced”.

From US7425577B2, “Lipase-colipase inhibitor” (Forskarpatent 1 SYD AB, priority 2003, dated 2008)
